Assay results: patent US11304929B2, “Tosylacetate based compounds and derivatives thereof as PHGDH inhibitors” (priority 2017, dated 2022)
Like-named read-outs stand apart in the source and are kept apart here.

What was measured:
PHGDH = PHGDH (Homo sapiens (Human), UniProt O43175); test: 3-Phosphoglycerate Dehydrogenase (PHGDH) Fluorescence Intensity Assay, run at two NAD/3-PG ratios: PHGDH_HIGH_NAD/3-PG (250 μM NAD/500 μM 3-PG) and PHGDH_500_NAD/3-PG (500 μM NAD/500 μM 3-PG); format: biochemical
MDA-MB-468 = test: 13C3 Serine Assay MDA-MB-468 (13C3 serine levels by LC/MS/MS); format: cell-based; details: Homo sapiens
[1] = 250 μM NAD/500 μM 3-PG, read-out: IC50 (PHGDH_HIGH_NAD/3-PG)
[2] = MDA-MB-468 cells, 13C3 serine levels by LC/MS/MS, read-out: IC50 (13CSERINE)
[3] = 500 μM NAD/500 μM 3-PG, read-out: IC50 (PHGDH_500_NAD/3-PG)
[4] = MDA-MB-468, read-out: IC50 (13CSERINE)

Chain of PHGDH (O43175 2-533 limits assumed): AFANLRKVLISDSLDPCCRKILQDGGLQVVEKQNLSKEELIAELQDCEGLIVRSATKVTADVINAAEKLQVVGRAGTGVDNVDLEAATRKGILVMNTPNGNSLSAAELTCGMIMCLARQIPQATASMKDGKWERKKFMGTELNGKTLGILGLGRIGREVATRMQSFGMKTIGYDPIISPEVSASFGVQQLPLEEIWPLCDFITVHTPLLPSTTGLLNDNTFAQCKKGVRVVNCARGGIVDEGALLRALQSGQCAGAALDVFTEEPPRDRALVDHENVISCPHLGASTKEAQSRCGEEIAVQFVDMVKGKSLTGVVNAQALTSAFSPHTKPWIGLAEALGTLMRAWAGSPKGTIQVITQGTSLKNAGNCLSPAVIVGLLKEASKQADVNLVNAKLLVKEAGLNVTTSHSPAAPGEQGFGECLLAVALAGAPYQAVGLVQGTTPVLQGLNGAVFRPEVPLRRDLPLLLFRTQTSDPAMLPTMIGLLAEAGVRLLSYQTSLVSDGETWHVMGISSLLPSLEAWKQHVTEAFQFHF

SMILES: Cc1cc(Cl)c2cc(C(=O)N[C@H](C)c3ccc(S(=O)(=O)CC(=O)OC4CCOCC4)cc3)n(C)c2c1 [Example 09-014, oxan-4-yl 2-{4-[(1R)-1-[(4-chloro-1,6-dimethyl-1H-indol-2-yl)formamido]ethyl]benzenesulfonyl}acetate]
- IC50 (PHGDH; [1]): 1040 nM
- IC50 (MDA-MB-468; [2]): 14.7 nM

SMILES: CCOCCOCCOC(=O)CS(=O)(=O)c1ccc([C@@H](C)NC(=O)c2cc3c(Cl)cc(C)cc3n2C)cc1 [Example 09-001, 2-(2-ethoxyethoxy)ethyl 2-{4-[(1R)-1-[(4-chloro-1,6-dimethyl-1H-indol-2-yl)formamido]ethyl]benzenesulfonyl}acetate]
- IC50 (PHGDH; [1]): 289 nM
- IC50 (MDA-MB-468; [2]): 53.8 nM

SMILES: Cc1cc2c(cc(C(=O)N[C@H](CO)c3ccc(S(=O)(=O)CC(=O)O)cc3)n2C)c(Cl)c1Cl [Example 03-006, 2-{4-[(1S)-1-[(4,5-dichloro-1,6-dimethyl-1H-indol-2-yl)formamido]-2-hydroxyethyl]benzenesulfonyl}acetic acid]
- IC50 (PHGDH; [1]): 3 nM
- IC50 (PHGDH; [3]): 4 nM
- IC50 (MDA-MB-468; [4]): 203 nM

SMILES: Cc1cc2c(cc(C(=O)N[C@H](C)c3ccc(S(=O)(=O)CC(=O)O)cc3)n2C)c(Cl)c1Cl [Example 03-005, 2-{4-[(1R)-1-[(4,5-dichloro-1,6-dimethyl-1H-indol-2-yl)formamido]ethyl]benzenesulfonyl}acetic acid]
- IC50 (PHGDH; [1]): 4 nM
- IC50 (PHGDH; [3]): 9 nM
- IC50 (MDA-MB-468; [4]): 1070 nM

SMILES: CC(C)OC(=O)CS(=O)(=O)c1ccc([C@@H](C)NC(=O)c2cc(-c3ccccc3)nn2C)cc1 [Example 02-011, propan-2-yl 2-{4-[(1R)-1-[(1-methyl-3-phenyl-1H-pyrazol-5-yl)formamido]ethyl]benzenesulfonyl}acetate]
- IC50 (PHGDH; [1]): 6720 nM
- IC50 (MDA-MB-468; [2]): 135 nM

SMILES: COC(=O)CS(=O)(=O)c1ccc([C@@H](CO)NC(=O)c2cc3c(Cl)cc(C)cc3n2C)cc1 [Example 01-013, methyl 2-{4-[(1S)-1-[(4-chloro-1,6-dimethyl-1H-indol-2-yl)formamido]-2-hydroxyethyl]benzenesulfonyl}acetate]
- IC50 (PHGDH; [1]): 87 nM
- IC50 (MDA-MB-468; [4]): 8.3 nM

SMILES: Cc1cc(Cl)c2cc(C(=O)N[C@H](C)c3ccc(S(=O)(=O)CC(=O)OCc4cccc(C(F)(F)F)c4)cc3)n(C)c2c1 [Example 09-011, [3-(trifluoromethyl)phenyl]methyl 2-{4-[(1R)-1-[(4-chloro-1,6-dimethyl-1H-indol-2-yl)formamido]ethyl]benzenesulfonyl}acetate]
- IC50 (PHGDH; [1]): 3510 nM
- IC50 (MDA-MB-468; [2]): 20.1 nM

SMILES: COCCOC(=O)C(C)(C)S(=O)(=O)c1ccc([C@@H](C)NC(=O)c2cc3c(Cl)c(Cl)c(C)nc3n2C)cc1 [Example 05-018, 2-methoxyethyl 2-{4-[(1R)-1-({4,5-dichloro-1,6-dimethyl-1H-pyrrolo[2,3-b]pyridin-2-yl}formamido)ethyl]benzenesulfonyl}-2-methylpropanoate]
- IC50 (PHGDH; [1]): 5330 nM
- IC50 (MDA-MB-468; [2]): 142 nM

SMILES: CC(C)OC(=O)CS(=O)(=O)c1ccc([C@@H](C)NC(=O)c2cc(-c3ccc(F)cc3)nn2C)cc1 [Example 02-008, propan-2-yl 2-{4-[(1R)-1-{[3-(4-fluorophenyl)-1-methyl-1H-pyrazol-5-yl]formamido}ethyl]benzenesulfonyl}acetate]
- IC50 (PHGDH; [1]): 4840 nM
- IC50 (MDA-MB-468; [2]): 68.4 nM

SMILES: Cc1nc2c(cc(C(=O)N[C@H](CO)c3ccc(S(=O)(=O)CC(=O)O)cc3)n2C)c(Cl)c1Cl [Example 03-011, 2-{4-[(1S)-1-({4,5-dichloro-1,6-dimethyl-1H-pyrrolo[2,3-b]pyridin-2-yl}formamido)-2-hydroxyethyl]benzenesulfonyl}acetic acid]
- IC50 (PHGDH; [1]): 9 nM
- IC50 (MDA-MB-468; [2]): 2000 nM

SMILES: CCOC(=O)CS(=O)(=O)c1ccc([C@@H](CO)NC(=O)c2cc3c(F)c(F)c(C)cc3n2C)cc1 [Example 01-028, ethyl 2-{4-[(1S)-1-[(4,5-difluoro-1,6-dimethyl-1H-indol-2-yl)formamido]-2-hydroxyethyl]benzenesulfonyl}acetate]
- IC50 (PHGDH; [1]): 267 nM
- IC50 (PHGDH; [3]): 525 nM
- IC50 (MDA-MB-468; [2]): 7.3 nM

SMILES: COC(=O)C(C)S(=O)(=O)c1ccc([C@@H](C)NC(=O)c2cc3c(Cl)cc(C)cc3n2C)cc1 (stereo partly drawn) [Example 05-009, methyl 2-{4-[(1R)-1-[(4-chloro-1,6-dimethyl-1H-indol-2-yl)formamido]ethyl]benzenesulfonyl}propanoate]
- IC50 (PHGDH; [1]): 1680 nM
- IC50 (MDA-MB-468; [2]): 1.6 nM

SMILES: CCOC(=O)CS(=O)(=O)c1ccc([C@@H](C)NC(=O)c2cc3c(Cl)c(Cl)c(C)nc3n2C)cc1 [Example 01-016, ethyl 2-{4-[(1R)-1-({4,5-dichloro-1,6-dimethyl-1H-pyrrolo[2,3-b]pyridin-2-yl}formamido)ethyl]benzenesulfonyl}acetate]
- IC50 (PHGDH; [1]): 1090 nM
- IC50 (MDA-MB-468; [2]): 72.1 nM

SMILES: COC(=O)CS(=O)(=O)c1ccc([C@@H](CO)NC(=O)c2cc3c(Cl)c(Cl)c(C)nc3n2C)cc1 [Example 01-023, methyl 2-{4-[(1S)-1-({4,5-dichloro-1,6-dimethyl-1H-pyrrolo[2,3-b]pyridin-2-yl}formamido)-2-hydroxyethyl]benzenesulfonyl}acetate]
- IC50 (PHGDH; [1]): 216 nM
- IC50 (MDA-MB-468; [2]): 0.8 nM

SMILES: Cc1cc(Cl)c2cc(C(=O)N[C@H](C)c3ccc(S(=O)(=O)CC(=O)OCCO)cc3)n(C)c2c1 [Example 09-007, 2-hydroxyethyl 2-{4-[(1R)-1-[(4-chloro-1,6-dimethyl-1H-indol-2-yl)formamido]ethyl]benzenesulfonyl}acetate]
- IC50 (PHGDH; [1]): 166 nM
- IC50 (MDA-MB-468; [2]): 23.9 nM

SMILES: CCC(C(=O)OC)S(=O)(=O)c1ccc([C@@H](C)NC(=O)c2cc3c(Cl)cc(C)cc3n2C)cc1 (stereo partly drawn) [Example 05-013, methyl 2-{4-[(1R)-1-[(4-chloro-1,6-dimethyl-1H-indol-2-yl)formamido]ethyl]benzenesulfonyl}butanoate]
- IC50 (PHGDH; [1]): 5530 nM
- IC50 (MDA-MB-468; [2]): 166 nM

SMILES: Cc1cc(Cl)c2cc(C(=O)N[C@H](C)c3ccc(S(=O)(=O)C(C)(C)C(=O)O)cc3)n(C)c2c1 [Example 07-005, 2-{4-[(1R)-1-[(4-chloro-1,6-dimethyl-1H-indol-2-yl)formamido]ethyl]benzenesulfonyl}-2-methylpropanoic acid]
- IC50 (PHGDH; [1]): 12 nM
- IC50 (MDA-MB-468; [2]): 1190 nM

SMILES: CC(=O)OCCOC(=O)CS(=O)(=O)c1ccc([C@@H](C)NC(=O)c2cc3c(Cl)cc(C)cc3n2C)cc1 [Example 09-002, 2-(acetyloxy)ethyl 2-{4-[(1R)-1-[(4-chloro-1,6-dimethyl-1H-indol-2-yl)formamido]ethyl]benzenesulfonyl}acetate]
- IC50 (PHGDH; [1]): 230 nM
- IC50 (MDA-MB-468; [2]): 69 nM

SMILES: Cc1cc(Cl)c2cc(C(=O)N[C@H](C)c3ccc(S(=O)(=O)CC(=O)OCC4(C)COC4)cc3)n(C)c2c1 [Example 09-012, (3-methyloxetan-3-yl)methyl 2-{4-[(1R)-1-[(4-chloro-1,6-dimethyl-1H-indol-2-yl)formamido]ethyl]benzenesulfonyl}acetate]
- IC50 (PHGDH; [1]): 303 nM
- IC50 (MDA-MB-468; [2]): 22.2 nM

SMILES: COC(=O)C1(S(=O)(=O)c2ccc([C@@H](C)NC(=O)c3cc4c(Cl)cc(C)cc4n3C)cc2)CCOCC1 [Example 05-010, methyl 4-{4-[(1R)-1-[(4-chloro-1,6-dimethyl-1H-indol-2-yl)formamido]ethyl]benzenesulfonyl}oxane-4-carboxylate]
- IC50 (PHGDH; [1]): 11200 nM
- IC50 (MDA-MB-468; [2]): 3.7 nM

SMILES: CCCC(C(=O)O)S(=O)(=O)c1ccc([C@@H](C)NC(=O)c2cc3c(Cl)cc(C)cc3n2C)cc1 (stereo partly drawn) [Example 07-012, 2-{4-[(1R)-1-[(4-chloro-1,6-dimethyl-1H-indol-2-yl)formamido]ethyl]benzenesulfonyl}pentanoic acid]
- IC50 (PHGDH; [1]): 6 nM
- IC50 (PHGDH; [3]): 16 nM
- IC50 (MDA-MB-468; [2]): 2390 nM
